Data taken from patent US20220024882A1, “NOVEL TUMOR ANTIGEN BINDING AGENTS AND USES THEREOF” (ITM Isotopen Technologien München AG, priority 2018, published 2022).

Columns and labels:
[1] = Plasma protein binding, ultrafiltration assay; format: in vitro ADME; conditions: incubated in human plasma at 37° C., read-out: fraction of radioligand retained in the filter membrane (serum protein binding) (converted)
Protocol: In short, the PSMA-ligands were labeled with ^177Lu at a specific activity of 50 MBq/nmol and incubated in human plasma samples or PBS at room temperature. The free and plasma-bound fractions were separated using a centrifree ultrafiltration device (4104 centrifugal filter units; Millipore, 30000 Da nominal molecular weight limit, methylcellulose micropartition membranes). The incubated solution was loaded to the ultrafiltration device and centrifuged at 2500 rpm for 40 min at 20° C. Samples from the filtrate were taken and analyzed for radioactivity in a γ-counter. The amount of plasma-bound radioligand was calculated as the fraction of radioactivity measured in the […] relative to the corresponding loading solution (set to 100%). The experiments were performed at least 3 times for each radioligand.
Plasma protein-binding properties of ^177Lu-Ibu-sPSMA were determined using an ultrafiltration assay according to Benesova, M. et al. (Mol Pharm 2018, 15, (3), 934-946). In short, the Ibu-sPSMA-ligand was labeled with ^177Lu at a molar activity of 50 MBq/nmol and incubated in human plasma samples or PBS at 37° C. […] Samples from the filtrate were taken and analyzed for radioactivity in a γ-counter. The amount of plasma-bound radioligand was calculated as the fraction of radioactivity measured in the […] relative to the corresponding loading solution (set to 100%). […]

[2] = n-Octanol/PBS distribution coefficient (log D); format: physicochemical
Protocol: The n-octanol/PBS distribution coefficient of the five exemplified PSMA-binding agents ^177Lu-Ibu-PSMA, ^177Lu-Ibu-Dα-PSMA, ^177Lu-Ibu-Dβ-PSMA, ^177Lu-Ibu-N-PSMA and ^177Lu-Ibu-DAB-PSMA in a n-octanol/PBS system was performed in a similar manner as previously reported (Benesova, M.; Umbricht, C. A.; Schibli, R.; Müller, C. Albumin-binding PSMA ligands: optimization of the tissue distribution profile. Mol Pharm 2018, 15, (3), 934-946).

[3] = tested on: PSMA-negative PC-3 flu tumor cells; experiment: Cell uptake, PSMA-negative cells; format: cell-based; conditions: after 4 h
Source text: (§1) Cell uptake and internalization of ^177Lu-Ibu-PSMA, ^177Lu-Ibu-Dα-PSMA, ^177Lu-Ibu-Dβ-PSMA, ^177Lu-Ibu-N-PSMA and ^177Lu-Ibu-DAB-PSMA were investigated using PSMA-positive PC-3 PIP and PSMA-negative PC-3 flu tumor cells kindly provided by Prof. Dr. Martin Pomper (John Hopkins Institutions, Baltimore, U.S.; Eiber, M.; Fendler, W. P.; Rowe, S. P.; Calais, J.; Hofman, M. S.; Maurer, T.; Schwarzenboeck, S. M.; Kratowchil, C.; Herrmann, K.; Giesel, F. L. Prostate-specific membrane antigen ligands for imaging and therapy. J Nucl Med 2017, 58, (Suppl 2), 67S-76S). Each radioligand was investigated by the performance of experiments performed 3 times in triplicate with PC-3 PIP tumor cell and once in triplicate with PC-3 flu tumor cells.
(§2) Cell uptake and internalization of ^177Lu-Ibu-sPSMA were investigated using PSMA-positive PC-3 PIP and PSMA-negative PC-3 flu tumor cells kindly provided by Prof. Dr. Martin Pomper (Johns Hopkins University School of Medicine, Baltimore, Md., U.S.A.) (Eiber, et al.; J Nucl Med 2017, 58, (Suppl 2), 67S-76S). ^177Lu-Ibu-sPSMA was investigated by performing experiments 3 times in 6 replicates with PC-3 PIP tumor cells and 3 times in 6 replicates with PC-3 flu tumor cells.

PSMA = target: T1, PSMA (Homo sapiens, UniProt Q04609); experiment: Determination of KD values (PSMA-binding affinity); conditions: PSMA-binding affinity of the 177Lu radioligand
T1 construct: expressed in transfected cells; host or cells: PC-3 PIP (PSMA-transfected PC-3 human prostate cancer cells), from Prof; Martin Pomper
Protocol: The KD values, indicating the PSMA-binding affinity of the novel radioligand, were determined.

[4] = tested on: PSMA-positive PC-3 PIP tumor cells; experiment: Cell uptake and internalization, PSMA-positive cells; format: cell-based
Source text: as §1, §2

T1 sequence (Q04609 whole entry): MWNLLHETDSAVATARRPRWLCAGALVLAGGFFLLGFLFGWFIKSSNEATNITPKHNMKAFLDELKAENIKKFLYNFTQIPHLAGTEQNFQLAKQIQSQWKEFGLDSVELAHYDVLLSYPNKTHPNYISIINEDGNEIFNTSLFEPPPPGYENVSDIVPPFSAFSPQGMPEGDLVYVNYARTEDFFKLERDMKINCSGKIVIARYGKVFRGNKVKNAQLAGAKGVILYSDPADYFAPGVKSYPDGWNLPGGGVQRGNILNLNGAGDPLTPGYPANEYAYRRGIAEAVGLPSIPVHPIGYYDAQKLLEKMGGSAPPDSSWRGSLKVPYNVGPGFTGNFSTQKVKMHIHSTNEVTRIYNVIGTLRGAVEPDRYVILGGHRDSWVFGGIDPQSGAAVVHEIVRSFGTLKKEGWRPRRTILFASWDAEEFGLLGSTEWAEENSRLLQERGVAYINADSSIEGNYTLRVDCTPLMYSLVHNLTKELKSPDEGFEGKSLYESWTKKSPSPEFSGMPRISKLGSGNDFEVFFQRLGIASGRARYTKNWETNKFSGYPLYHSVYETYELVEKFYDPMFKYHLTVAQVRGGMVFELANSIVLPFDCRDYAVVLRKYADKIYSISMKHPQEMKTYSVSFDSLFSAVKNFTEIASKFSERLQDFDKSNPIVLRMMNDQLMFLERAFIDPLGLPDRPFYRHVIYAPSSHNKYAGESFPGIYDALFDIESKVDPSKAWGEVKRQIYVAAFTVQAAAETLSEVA

## CC(C)Cc1ccc(C(C)C(=O)NCC[C@H](NC(=O)CN2CCN(CC(=O)O)CCN(CC(=O)O)CCN(CC(=O)O)CC2)C(=O)NCC2CCC(C(=O)N[C@@H](Cc3ccc4ccccc4c3)C(=O)NCCCC[C@H](NC(=O)N[C@@H](CCC(=O)O)C(=O)O)C(=O)O)CC2)cc1 (stereo partly drawn) [^177Lu-Ibu-sPSMA, metal not drawn]
[1]
  fraction unbound: ~0.03
[2]
  logD: -2.43 ± 0.01
[3]
  uptake in PC-3 flu tumor cells: < 0.1%
PSMA
  Kd: 40 ± 5 nM
[4]; 2 h incubation
  internalized fraction: 18%
[4]; 4 h incubation
  internalized fraction: 22%
